# Results reported in patent US9491933B2, “Infected nail of animal infected with fungus” (POLA PHARMA, INC., priority 2007, dated 2016).
# Assay: Rabbit immunity suppression: body weight change after administration of the immunosuppressive agent
# Assay type: in vivo, Japanese white rabbit
# Conditions: 4 mg/kg per dose to femoral muscle once a week; 2 weeks after starting the administration; average of 15 rabbits
# Experimental: 14 week old Japanese white rabbits (Kbl: JW, Kitayama Labes Co., Ltd.) were quarantined and acclimatized for 1 week. After acclimatization, a long-acting methylprednisolone acetate preparation (Depo Melcort, Fuji Pharma Co., Ltd.) was administered as an immunosuppressive agent to femoral muscle a total of three times, with 4 mg/kg as the amount administered in one dose, at intervals of once a week. […] At a point 2 weeks after starting the administration, at which the average of the weights of a total of 15 rabbits had decreased by about 6% from the weight prior to administration, inoculation with a fungal liquid was carried out.
compound,measurement,value
CC(=O)OCC(=O)[C@@]1(O)CC[C@H]2[C@@H]3C[C@H](C)C4=CC(=O)C=C[C@]4(C)[C@H]3[C@@H](O)C[C@@]21C [methylprednisolone acetate],decrease of average weight from the weight prior to administration (indicator of immunocompromise),about 6%
